Assay [1] concerns liver. Briefly: Liver histopathology (H&E staining) of SD rats fed high fat diet and injected with rotenone. The assay is classed as in vivo. To be noted: experimental group: 60% high fat diet + rotenone 2.5 mg/kg/day i.p., 8 weeks. The text has this:
(§1) SD rats are selected to use as the laboratory animals in the present embodiment. All SD rats are bred at the cages, and adequate feeds and water are given during the adaptive period and the experimental period. After the adaptive period, the SD rats are randomly divided into three groups concluding a control group, an experimental group, and a contrast group, and there are 6 SD rats in each group. In the control group, the SD rats are fed with AIN-93M diet. The SD rats in the experimental group are fed with the modified AIN-93M diet whose fat calorie is accounted for 60% of total calorie thereof, and the mitochondrial inhibitor (rotenone) is injected into the SD rats via an intraperitoneal injection once every two days. The dosage of the rotenone is about 2.5 mg/kg/day. The components of the diet and the fat percentage in the contrast group and the experimental group are the same. Normal saline is injected into the SD rats in the contrast group via the intraperitoneal injection to differentiate from the experimental group. After feeding 8 weeks, the SD rats in each group are sacrificed to collect arteria coeliaca blood and to obtain livers after perfusing 0.9% normal saline thereinto for determining the pathological analysis of the liver, the blood biochemical analysis and the liver biochemical analysis.
Livers of the SD rats in each group are all stained by H&E staining. […]

A further assay can be described thus: Visceral fat weight. To be noted: experimental group: 60% high fat diet + rotenone 2.5 mg/kg/day i.p. once every two days, 8 weeks; epididymis and perirenal adipose tissue. The class given is in vivo, SD rats.
Text: as §1, with “analysis. […]” for “analysis.”

Assay [2] in a line: Blood biochemical analysis and liver function index. To be noted: experimental group: 60% high fat diet + rotenone i.p., 8 weeks. The class given is in vivo, SD rats.
Text: as §1
The blood biochemical analyses of cholesterol, triglyceride, and non-esterified fatty acids are examined. The liver function indexes of aspartate aminotransferase (AST) and alanine aminotransferase (ALT) are also analyzed.

Assay [3] relates to liver. In words: Liver biochemical analysis (liver lipids, TBARS, TNF-α, hydroxyproline). The class given is in vivo, SD rats. Particulars: experimental group: 60% high fat diet + rotenone i.p., 8 weeks.
Text: as §1
The lipid extracts are obtained from the livers of the SD rats in each group to analyze the contents of total cholesterol, triglyceride, and non-esterified fatty acids, as shown below Table 2.
Additionally, if oxidative stress, such as reactive oxygen species (ROS), is increased in vivo, lipid peroxides may be increased. Because the half life of the ROS is shorter than that of the lipid peroxides, the lipid peroxides, such as thiobarbituric acid-reactive-substance (TBARS), are used as the oxidative stress index. The livers of the SD rats in each group are respectively prepared to obtain homogeneous liquids for analyzing the concentration of the TBARS by a fluorophotometer. […] The concentrations of the TBARS in the control group, the experimental group and the contrast group are respectively 0.51±0.05, 2.18±0.19 and 1.15±0.09 μM/mg protein. That means in the experimental group, the oxidative stress in the livers of the SD rats is highest.
In the NAFLD progression, when high oxidative stress is existed in a liver for a long time, inflammatory cytokines, such as tumor necrosis factor-alpha (TNF-α), are increased. After the SD rats are sacrificed, the concentration of the TNF-α is determined to analyze whether the inflammatory response is induced or not. […] The concentrations of TNF-α in the control group, the experimental group, and the contrast group are respectively 13.96±1.05, 21.34±0.77, and 19.51±1.11 pg/mg protein. Following the results as set forth, the livers of rats in the experimental group have the inflammatory response. […] But, once livers are existed in high oxidative stress, the liver injuries thereof from simple steatosis to necrosis or fibrosis are performed. Therefore, the collagen index (i.e. the fibrosis index), hydroxyproline, in the livers should be determined. The concentrations of the hydroxyproline in the control group, the experimental group, and the contrast group are 3.32±1.05, 6.68±0.77, and 4.05±1.11 μg/mg protein, respectively. It indicates the concentration of the hydroxyproline in the experimental group is higher than those of in the control group and the contrast group.

In assay [4] the test system is NADH cytochrome c reductase (NCCR), mitochondrial complex I and III. Briefly: NCCR activity in hepatocytes. The assay is classed as in vivo, SD rats. Particulars: experimental group: 60% high fat diet + rotenone i.p., 8 weeks.
Text: as §1
(§2) Rotenone is hydrophobic, and can diffuse to organelles including mitochondria. […]

Assay [5] relates to succinate cytochrome c reductase (SCCR), mitochondrial complex II and III. In words: SCCR activity in hepatocytes. The class given is in vivo, SD rats. To be noted: experimental group: 60% high fat diet + rotenone i.p., 8 weeks.
Text: as §1, §2

The test system of assay [6] is cytochrome c oxidase (CCO), mitochondrial complex IV. In words: CCO activity in hepatocytes. The assay is classed as in vivo, SD rats. Particulars: experimental group: 60% high fat diet + rotenone i.p., 8 weeks.
Text: as §1, §2

For another assay, the system named is mitochondrial complex I. In words: Mitochondrial complex I activity inferred from NCCR and SCCR activity. The class given is in vivo, SD rats. To be noted: experimental group: 60% high fat diet + rotenone i.p., 8 weeks; combined NCCR and SCCR results.
Text: as §1, §2

Turning to `C=C(C)[C@H]1Cc2c(ccc3c2O[C@@H]2COc4cc(OC)c(OC)cc4[C@@H]2C3=O)O1` [rotenone], in the assay on liver [1], the “cell morphology (H&E staining of liver)” value is “lipid drops and ballooning degeneration”. Further, the visceral fat weight in the assay “Visceral fat weight” is given as 51.28±3.41 grams. In addition, in assay [2], the ALT is recorded as 39.4 ± 2.61 IU/L, the AST came out at 90.1 ± 13.68 IU/L, the “Cholesterol (blood)” value is 73.4 ± 7.61 mg/dL and the “Triglyceride (blood)” value came to 60.1 ± 10.15 mg/dL. Moreover, the “concentration of TNF-α” value in the assay with liver [3] stood at 21.34±0.77 pg/mg protein. In the assay on liver [3] (collagen/fibrosis index), the “concentration of hydroxyproline (liver)” value was found to be 6.68±0.77 μg/mg protein. The “concentration of TBARS (liver)” value with liver [3] (liver homogenate, fluorophotometer) turned out to be 2.18±0.19 μM/mg protein. For the same compound, in the assay with liver [3] (liver lipid extract), the “Non-esterified fatty acids (liver)” value turned out to be 5.02 ± 0.38 µmol/g, the “Total cholesterol (liver)” value came out at 131.74 ± 5.30 mg/dL and the “Triglyceride (liver)” value is 6.78 ± 0.55 mg/dL. Further, in assay [4], the NCCR activity is 0.68 ± 0.26 nmol/cytochrome c reduced/min/mg protein. Moreover, the SCCR activity in assay [5] was 0.51 ± 0.05 nmol/cytochrome c reduced/min/mg protein. Besides, in assay [6], the CCO activity is listed as 5.57 ± 2.88 nmol/cytochrome c oxidized/min/mg protein. Besides, the “mitochondrial complex I activity versus control group and contrast group” value with mitochondrial complex I is “lower”.
